This experiment concerns splenocytes from the mice vaccinated with Top2αC RNA/DCs. The experiment can be described thus: IFN-γ ELISA of splenocytes stimulated with Top2αC-derived peptides. The experiment is classed as cell-based, mouse. The note with it: 1 μg/ml peptides, three days, compared to other peptides. The procedure: The 5 Top2αC-derived peptides binding to MHC class I molecules (H-2 Kb) with a high score were selected by BIMAS and […], and in order to determine T lymphocyte epitopes of Top2αC, splenocytes from the mice vaccinated with Top2αC RNA/DCs were stimulated with Top2αC-derived peptides, and then IFN-γ production was determined by ELISA.
Splenocytes (2×10^5 cells/200 μl) of a mouse vaccinated with Top2αC RNA/DCs were incubated with 1 μg/ml peptides in a round-bottomed 96-well plate. Three days later, the plate was centrifuged and 100 μl of the supernatant was removed from each well. The level of IFN-γ was determined by ELISA (eBioscience, San Diego, USA).

We go through one sequence from patent US20110287442A1, “Tumor Antigen Protein, Gene, or Peptides from Topoisimerase 2 Alpha” (CATHOLIC UNIVERSITY INDUSTRY ACADEMIC COOPERATION FOUNDATION, priority 2010, published 2011).

On to “DSDEDFSGL [p1327, Top2αC-derived peptide, location 1327-1355 as printed]”, for which the IFN-γ production entry is “higher level”.
